# Assay results as given in US20170211048A1, “ENHANCED REPROGRAMMING TO IPS CELLS” (Boehringer Ingelheim International GmbH, priority 2014, published 2017).
# Tests used:
# Format in all cases: cell-based, mouse
# [1] = test system: MEFs with doxycycline inducible reprogramming factors; experiment: iPS colony formation assay in serum replacement, LIF and 2i; settings: 2i plus LIF at single cell density, 10000 cells/10 cm dish, doxycycline 7 days
# Description: In order to test the achieved factor of iPS formation enhancement in a colony formation assay, we chose optimal conditions described for iPS formation, i.e. serum replacement, LIF and 2i. The two inhibitors (2i) are shown to support the ground state of pluripotency and enhance iPS formation. More specifically, 2i supports the transition of pre-iPS cells to iPS cells.
# In doing so, we intended to measure the factor of improvement in optimal, potentially saturated conditions. 10000 cells were plated/10 cm dish and reprogramming was induced by addition of doxycycline for 7 days. Reprogramming in presence of 2i furthermore represents an additional condition to test versatility of herein described enhanced reprogramming regimen. […]
# [2] = test system: reprogrammable MEFs; experiment: FACS based timeline of Oct4-GFP expression during reprogramming; settings: days of OKSM expression, FIG. 3
# Description: In order to observe the kinetics of reprogramming in the enhanced reprogramming regimen, we quantified GFP positive cells using FACS analysis. GFP driven from the endogenous Oct4 locus serves as a marker for Oct4 expression and thus iPS and possibly pre-iPS state. […] In contrast, Ube2i suppression only slightly accelerated the reprogramming timeline, but made the process much more efficient, and ultimately exceeds the effects of observed for Caf-1 suppression (i.e. the percentage of GFP+ cells actually overtakes the enhancement achieve through Caf-1 suppression at day 10).
# The inventors further decided to examine the effects of the gene expression reduction in the absence of the identified chromatin barriers, by following the emergence of Oct4-GFP^+ cells over time. While suppression of Ube2i promoted Oct4-GFP activation slightly earlier than controls (day six with Ube2i shRNA vs. day nine with Renilla shRNA), the suppression of either CAF-1 subunit triggered a dramatic acceleration of this process and consistently generated Oct4-GFP+ cells as early as four days of OKSM expression (FIG. 3). Similar effects were observed by flow cytometry-based analysis of Nanog expression (FIG. 15).
# [3] = test system: OSKM/RR/OG-MEFs; experiment: single-shRNA validation, flow cytometry of the Oct4-GFP reporter; settings: FIG. 1, day 11 after doxycycline induction; DMEM with FCS and ascorbate
# Description: To validate hits identified in the primary multiplexed screen, a set of 32 independent shRNAs including several of the top hits as well as a panel of intermediately scoring shRNAs were tested in single assays. To this end, OSKM/RR/OG-MEFs were transduced with individual pLENC shRNAs in biological triplicates, selected, and treated with Dox for OSKM induction. The iPS reprogramming efficacy was quantified using flow cytometry analysis of the Oct-4-GFP reporter (FIG. 1) and microscopy (FIG. 2a).
# To this end, described MEFs with doxycycline inducible reprogramming factors (OSKM, 4F, Yamanaka factors) were transduced with pLENC-shRNA vectors (co-expressing miRE-based shRNAs, mCherry and a Neo resistance gene) in biological triplicate as described previously. Selection for infected cells was based on G418 resistance. 3 days after infection, cells were trypsinized and each replicate was plated in multiple wells in presence of FCS and ascorbate containing medium as well as doxycycline. Cells were subjected to various conditions for iPS formation starting 24 h after Doxycycline addition, i.e. prior to expected full expression of OSKM factors. Doxycycline was added to media for 7 days. […]
# shRNAs were transduced into OSKM MEFs. […] Cells were analyzed using a FACS BD LSRFortessa.
# [4] = test system: Reprogrammable transgenic MEFs (Tet-OKSM, Rosa26-rtTAM2, Oct4-GFP); experiment: transient siRNA transfection during iPSC reprogramming; settings: siRNA transfected 1 to 3 times during doxycycline treatment
# Description: FIG. 26: Transient suppression of Chaf1a, Chaf1b or Ube2i using siRNA transfection enhances iPSC reprogramming. Reprogrammable transgenic MEFs (Tet-OKSM, Rosa26-rtTAM2, Oct4-GFP) where transfected 1 to 3 times at the indicated days of doxycyline treatment with siRNAs targeting Renilla, Chaf1a, Chaf1b, Ube2i. Shown is the fraction of Oct4-GFP positive cells after 11 days. […] Suppression of these targets at early time points of reprogramming (day 1-3 following OKSM expression) seems critical and sequential transfections at different days can enhance this effect. […] The siRNA molecules used in the study have the following sequence: Ube2i.414—2: […] (SEQ ID NO:103), Chaf1a.3120 […] (SEQ ID NO:104), Chaf1b.271 […] (SEQ ID NO:105) and Ren.713 […] (SEQ ID NO:106).
# [5] = test system: Oct4-GFP;CAGGS-rtTA3 double-transgenic MEFs; experiment: short-term transient OKSM expression and Tet-regulated shRNA; settings: doxycycline for 2 or 4 days
# Description: FIG. 22: Short-term transient expression of OKSM and suppression of Chaf1a for only 2-4 days enable robust iPSC reprogramming. Oct4-GFP;CAGGS-rtTA3 double-transgenic MEFs were first transduced with a Tet-regulatable shRNA expression vector encoding a potent Chaf1a shRNA (T3G-mCherry-miRE.Chaf1a.3118), and 3 days later transduced with lentiviral vectors inducibly expressing OKSM from the Tet-responsive promoters TRE (TetO-STEMCCA) or TRE3G (T3G-4Fpuro). Cell were treated with doxycyline for 2 or 4 days starting at day in OKSM infection, triggering a transient and reversible OKSM expression and Chaf1a suppression. Shown is the percentage of Oct4-GFP positive cells at day 11 after lentiviral infection. Error bars indicate standard deviation (SD) of 3 biological replicates. Suppression of Chaf1a, Chaf1b and Ube2i enhance iPSC reprogramming in the use of both Tet-inducible OKSM expression vectors.
substance,measurement,setting,value
shRNA.Ren.713: neutral control shRNA (Ren.713) targeting Renilla (guide AGGAATTATAATGCTTATCTA),Colony number,[1],0
same,time of Oct4-GFP activation,[2],day nine
same,Oct4-GFP+ cells,[3],< 1%
"CAGCTACTTCCAAATTGTAAA (listed as DNA, chemistry not fully specified) [Chaf1a.3120]",effect on fraction of Oct4-GFP positive cells after 11 days,[4],enhances reprogramming
"CACAATTTACTGCCAAAACAA (listed as DNA, chemistry not fully specified) [Ube2i.414—2]",effect on fraction of Oct4-GFP positive cells after 11 days,[4],enhances reprogramming
UUUACAAUUUGGAAGUAGCUG (expressed or natural sequence) [Chaf1a.3118],iPS cell formation (Oct4-GFP positive cells at day 11),[5],robust formation of iPS cells
